Data: paper PMC9501280, “Anti-Inflammatory Activity of Soluble Epoxide Hydrolase Inhibitors Based on Selenoureas Bearing an Adamantane Moiety” (International Journal of Molecular Sciences, 2022)
“Also recorded” adds a separate entry of the source.

Key:
[1] = Ferrous ions (Fe2+) chelating activity (FIC); conditions: compound 5 mM; EDTA taken as 100%
Description: One of the most important antioxidant properties of compounds is the ability to chelate transition metal ions, including iron, which participate in the Fenton reaction, forming an active HO^• and H2O2 and contributing to the development of radical processes, respectively, leading to oxidative damage to cells. In this regard, potential antioxidants can act not only as scavengers of active radicals but also have chelating properties. Therefore, the Ferrous Ions Chelating Activity (FIC) of compounds 4a–g and 5a were evaluated in this work by their ability to bind iron(II), which is expressed in a decreased amount of the colored ferrozine complex.
The chelation of ferrous ions by compounds was estimated by the method of Dinis et al. Briefly, 10 μL of 2 mM FeCl2 was added to 20 μL of the investigated compound (5 mM) and 150 μL of EtOH. The reaction was initiated by the addition of 0.04 mL of 5 mM ferrozine solution. The mixture was left to stand at 35 °C for 10 min. The absorbance of the solution was thereafter measured at 562 nm. The percentage inhibition of ferrozine–Fe^2+ complex formation was calculated as […], where A0 is the absorbance of the control, and As is the absorbance of the compound/standard. Na2EDTA was used as the positive control.

[2] = Nitric oxide radical scavenging assay (sodium nitroprusside, Griess); conditions: sample solution 0.5 mM, sodium nitroprusside 5 mM, 150 min
Method: The activity of compounds 4a–g and 5a with respect to NO^• generated from sodium nitroprusside, which further interacts with dissolved oxygen to form nitrite ions measured using the Griss reagent, was investigated.
Sodium nitroprusside (SNP) dissolved in aqueous solution at physiological pH 7.2 can generate nitric oxide whose level can be measured by the Griess reaction. Sample solution (50 µL, 0.5 mM) was mixed with SNP (50 µL, 5 mM) in phosphate buffer at pH 7.4 (0.2 M), followed by an incubation at room temperature for 150 min. Similarly, a blank was prepared by adding the sample solution in phosphate buffer without SNP. Griess reagent (solutions of 0.33% sulfanilic acid and 0.1% N-(1-naphthyl) ethylenediamine (NED) (C12H14N2) in 20% glacial acetic acid; 1:1) (100 µL) was added to the incubated sample and allowed to stand for 30 min. Absorbance values of the blank and samples were measured at 548 nm. The absorbance of the blank was then subtracted from that of the sample. Results were expressed as %inhibition. Inhibition I (%) = [(A0 − A1)/A0] × 100, where A1 is the absorbance in the presence of the testing compound, and A0 is the absorbance of the blank solution. All experiments were performed three times.

[3] = Antiradical activity in nonenzymatic quinoid oxidation of adrenaline; conditions: adrenaline autoxidation without compound = 100%; initial concentration 25 µM
Method: The antiradical activity of compounds 4a–g and 5a in the reaction of nonenzymatic quinoid oxidation of adrenaline (1-(3,4-dioxyphenyl)-2-methylaminoethanol) in alkaline bicarbonate buffer was evaluated. As a result of this reaction, not only the superoxide anion radical is formed, but also radicals of carbonate–bicarbonate anions, which makes it possible to reveal the total antiradical activity of potential antioxidants. […] Thus, we confirmed the antiradical activity of compounds 4a–g and 5a with respect to O2^–• generated in enzymatic and nonenzymatic model systems.
SOD-protective activity of the biopreparation was the ability to utilize the superoxide anion radical O2^–•, as determined by the method of Sirota. A cytosolic fraction of the Russian sturgeon liver homogenate was used as the source of SOD. First, the sturgeon liver was washed with cold 0.2 M Tris (tris (hydroxymethyl) aminomethane) buffer (pH 7.8) to remove any traces of blood. All of the procedures were performed at a temperature of 0–4 °C. Next, a homogenate was obtained using a Potter homogenizer (Thomas Scientific, Swedesboro, NJ, USA) in 0.2 M Tris buffer at a ratio of 1:10. The homogenate was then centrifuged for 10 min at 1000× g to remove partially destroyed cells and nuclei. The resulting supernatant contained the enzymes of the cytosolic fraction of the liver homogenate, including the SOD. Here, 10 µL of the biopreparation was added to a cuvette with 200 µL of bicarbonate buffer (pH 10.65), 10 µL of the tested compound (initial concentrations of these compounds 25 µM) and 10 µL of 0.1% adrenaline solution and was thoroughly and quickly mixed. The rate of adrenaline oxidation without and in the presence of the biopreparation was evaluated by the change in optical density, measured at 347 nm for 3 min. The decrease in the rate of the process in the presence of the biopreparation was used to characterize the SOD-protective activity.

[4] = ABTS radical cation scavenging
Method: Thus, at the further steps, the complex investigation of the target compounds’ ability to interact with protons, electrons, and radicals was conducted.

Structure (SMILES)	% Inhibition FIC [1]	% Inhibition NO• [2]	melting point [°C]	% Inhibition, Antiradical Activity (O2–•) [3] [%]	% Inhibition ABTS+• [4]
[Se]=C(Nc1ccccc1)NC12CC3CC(CC(C3)C1)C2 [4a, 1-(Adamantan-1-yl)-3-phenylselenourea]	13.6 ± 0.04%	non active	202 to 203	35.49 ± 0.03	
[Se]=C(Nc1ccccc1)Nc1ccc(C23CC4CC(CC(C4)C2)C3)cc1 [4e, 1-[4-(Adamantan-1-yl)phenyl]-3-phenylselenourea]	not established; also recorded: non active	2.63 ± 0.99%	163 to 164	23.68 ± 0.03	
[Se]=C(NCC12CC3CC(CC(C3)C1)C2)Nc1ccccc1 [4b, 1-[(Adamantan-1-yl)methyl]-3-phenylselenourea]	14.15 ± 2.27%	20.57 ± 1.42%	197 to 198	19.37 ± 0.88	53.01 ± 1.62%
[Se]=C(NCCC12CC3CC(CC(C3)C1)C2)Nc1ccccc1 [4d, 1-[2-(Adamantan-1-yl)ethyl]-3-phenylselenourea]	not established; also recorded: non active	31.36 ± 2.48%	141 to 142	9.97 ± 0.41	64.55 ± 2.30%
[Se]=C(NCc1ccccc1)NC12CC3CC(CC(C3)C1)C2 [5a, 1-(Adamantan-1-yl)-3-benzylselenourea]	not established; also recorded: non active	non active	157 to 158	43.79 ± 0.02	
[Se]=C(Nc1ccccc1)NC1C2CC3CC(C2)CC1C3 (stereo not drawn) [4g, 1-(Adamantan-2-yl)-3-phenylselenourea]	19.74 ± 1.57%	27.91 ± 1.50%	187 to 188	24.66 ± 1.33	47.21 ± 1.20%
CC12CC3CC(C)(C1)CC(NC(=[Se])Nc1ccccc1)(C3)C2 [4f, 1-(3,5-Dimethyladamantan-1-yl)-3-phenylselenourea]	26.20 ± 3.20%	7.27 ± 0.72%	142 to 143	20.95 ± 1.20	do not exhibit antiradical properties; also recorded: nonactive
CC(NC(=[Se])Nc1ccccc1)C12CC3CC(CC(C3)C1)C2 (stereo not drawn) [4c, 1-[1-(Adamantan-1-yl)ethyl]-3-phenylselenourea]	21.90 ± 1.88%	54.35 ± 2.38%		21.64 ± 2.29	77.44 ± 1.78%
